Source: US9394238B2, “Process for the production of carnitine from β-lactones” (Lonza Ltd., priority 2010, dated 2016)

Tests used:
rat = test: Acute toxicity LD50 in rat; assay type: in vivo

Q: Which Ames-Test (Ames-Test (mutagenicity)) does the source give for `O=C(O)/C=C/CO` [hydroxycrotonic acid] here?
A: negative

Q: What about the “LD50 (rat)” value (rat) of the same compound?
A: > 2000 mg/kg bw
